Laboratory results taken from patent US20250388553A1 (Incyte Corporation, priority 2018, published 2025).
Structures can show the parent of a compound that is named as a salt. Where two headings read alike, the source gives them in different places. Each block holds one compound with its values, some of them ahead of it.

What was measured:
[1] = tested on: Phosphorylated Ribosomal Protein S6 (RPS6) in THP-1 cells; experiment: THP-1 RPS6 ELISA assay; assay type: cell-based, Human; conditions: THP-1 cells, 10 nM MCP-1, phospho-RPS6 ELISA, read-out: PI3Kγ_THP1_RPS6_ELISA IC50
Source text: Example A. THP-1 RPS6 ELISA Assay
To measure the Phosphorylated Ribosomal Protein S6 (RPS6) in cell lysates, THP-1 cells (Human Acute Monocytic Leukemia) are purchased from ATCC (Manassas, VA) and maintained in RPMI with 10% FBS (Gibco/Life Technologies, Carlsbad, CA). For the assay, THP-1 cells are serum starved overnight in RPMI, then plated in RPMI (2×10^5 cells/well in […]) into 96-well flat-bottom tissue culture treated plates (Corning, Corning, NY), in the presence or absence of a concentration range of test compounds. Covered plates are incubated for 2 hours at 37° C., 5% CO2 then treated with or without 10 nM MCP-1(MYBioSource, San Diego, CA) for 15 minutes at 37° C., 5% CO2. Plates are centrifuged at 1600 RPM and supernatants are removed. Cells are lysed in Lysis Buffer (Cell Signaling, Danvers, MA) with Protease Inhibitor (Calbiochem/EMD, Germany), PMSF (Sigma, St Louis MO), HALTS (Thermo Fisher, Rockford, IL) for 30 min on wet ice. Cell lysates are frozen at −80° C. before testing. The lysates are tested in the Human/Mouse/Rat Phospho-RPS6 ELISA (R&D Systems, Inc. Minn, MN). The plate is measured using a microplate reader (SpectraMax M5—Molecular Devices, LLC Sunnyvale, CA) set to 450 nm with a wavelength correction of 540. IC50 determination is performed by fitting the curve of inhibitor percent inhibition versus the log of the inhibitor concentration using the GraphPad Prism 5.0 software.
The compounds of the Examples were tested in the assays described in Examples A, B and C and found to have the IC50s are shown in Tables A1, A2, A3 and A4.

[2] = molecular target: PI3Kδ (p1106/p85a) Recombinant Human Protein (Homo sapiens (Human), UniProt O00329); experiment: PI3Kδ scintillation proximity assay; assay type: biochemical; conditions: scintillation proximity assay, recombinant human PI3Kδ
PI3Kδ (p1106/p85a) Recombinant Human Protein, sequence (O00329 whole entry): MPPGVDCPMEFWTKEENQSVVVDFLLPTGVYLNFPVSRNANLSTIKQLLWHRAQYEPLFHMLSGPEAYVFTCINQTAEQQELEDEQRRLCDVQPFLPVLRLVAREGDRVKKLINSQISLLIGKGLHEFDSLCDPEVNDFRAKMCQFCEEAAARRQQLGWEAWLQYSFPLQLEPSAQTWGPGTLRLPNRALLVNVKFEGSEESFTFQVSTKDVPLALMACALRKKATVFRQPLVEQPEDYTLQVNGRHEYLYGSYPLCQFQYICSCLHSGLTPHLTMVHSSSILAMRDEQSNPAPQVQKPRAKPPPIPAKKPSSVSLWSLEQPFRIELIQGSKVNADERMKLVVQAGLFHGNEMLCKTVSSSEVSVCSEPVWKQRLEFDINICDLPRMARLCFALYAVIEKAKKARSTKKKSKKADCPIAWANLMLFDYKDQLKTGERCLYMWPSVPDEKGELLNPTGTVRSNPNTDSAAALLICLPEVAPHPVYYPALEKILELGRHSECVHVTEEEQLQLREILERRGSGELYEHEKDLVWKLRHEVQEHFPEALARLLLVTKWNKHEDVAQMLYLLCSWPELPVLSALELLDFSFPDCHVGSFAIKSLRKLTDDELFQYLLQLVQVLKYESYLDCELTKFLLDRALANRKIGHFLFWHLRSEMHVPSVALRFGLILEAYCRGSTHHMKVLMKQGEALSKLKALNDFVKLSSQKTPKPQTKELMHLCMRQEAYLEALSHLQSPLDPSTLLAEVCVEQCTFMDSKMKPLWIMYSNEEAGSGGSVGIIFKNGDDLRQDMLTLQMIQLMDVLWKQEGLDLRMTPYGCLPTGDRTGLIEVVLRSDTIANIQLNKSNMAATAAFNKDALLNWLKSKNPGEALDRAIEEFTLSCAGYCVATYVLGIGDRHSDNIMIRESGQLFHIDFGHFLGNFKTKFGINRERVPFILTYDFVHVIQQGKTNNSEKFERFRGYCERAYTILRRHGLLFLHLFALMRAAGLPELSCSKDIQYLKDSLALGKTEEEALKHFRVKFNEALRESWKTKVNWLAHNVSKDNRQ
PI3Kδ (p1106/p85a) Recombinant Human Protein, sequence (P27986 whole entry partner): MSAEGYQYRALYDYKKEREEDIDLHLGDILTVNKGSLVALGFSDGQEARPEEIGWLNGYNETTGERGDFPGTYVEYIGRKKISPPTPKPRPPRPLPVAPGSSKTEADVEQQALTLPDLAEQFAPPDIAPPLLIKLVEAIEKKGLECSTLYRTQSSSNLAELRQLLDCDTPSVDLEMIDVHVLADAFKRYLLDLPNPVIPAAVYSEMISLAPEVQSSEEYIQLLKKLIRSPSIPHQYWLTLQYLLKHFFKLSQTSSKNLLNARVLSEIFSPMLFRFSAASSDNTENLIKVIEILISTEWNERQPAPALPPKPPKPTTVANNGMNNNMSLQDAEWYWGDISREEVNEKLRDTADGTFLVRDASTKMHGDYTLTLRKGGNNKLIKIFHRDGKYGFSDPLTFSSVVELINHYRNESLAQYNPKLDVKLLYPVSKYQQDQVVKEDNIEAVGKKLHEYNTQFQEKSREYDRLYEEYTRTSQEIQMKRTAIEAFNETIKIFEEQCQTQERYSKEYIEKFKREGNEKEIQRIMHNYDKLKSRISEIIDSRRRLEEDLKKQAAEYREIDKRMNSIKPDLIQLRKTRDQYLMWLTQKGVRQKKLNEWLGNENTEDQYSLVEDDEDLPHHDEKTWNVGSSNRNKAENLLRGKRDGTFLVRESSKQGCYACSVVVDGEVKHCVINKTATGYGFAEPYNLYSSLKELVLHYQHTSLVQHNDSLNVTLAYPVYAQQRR

[3] = molecular target: PI3Kγ (p110γ) Recombinant Human Protein (Homo sapiens (Human), UniProt P48736); experiment: PI3K-γ scintillation proximity assay; assay type: biochemical; conditions: scintillation proximity assay, recombinant human p110γ
PI3Kγ (p110γ) Recombinant Human Protein, sequence (P48736 whole entry): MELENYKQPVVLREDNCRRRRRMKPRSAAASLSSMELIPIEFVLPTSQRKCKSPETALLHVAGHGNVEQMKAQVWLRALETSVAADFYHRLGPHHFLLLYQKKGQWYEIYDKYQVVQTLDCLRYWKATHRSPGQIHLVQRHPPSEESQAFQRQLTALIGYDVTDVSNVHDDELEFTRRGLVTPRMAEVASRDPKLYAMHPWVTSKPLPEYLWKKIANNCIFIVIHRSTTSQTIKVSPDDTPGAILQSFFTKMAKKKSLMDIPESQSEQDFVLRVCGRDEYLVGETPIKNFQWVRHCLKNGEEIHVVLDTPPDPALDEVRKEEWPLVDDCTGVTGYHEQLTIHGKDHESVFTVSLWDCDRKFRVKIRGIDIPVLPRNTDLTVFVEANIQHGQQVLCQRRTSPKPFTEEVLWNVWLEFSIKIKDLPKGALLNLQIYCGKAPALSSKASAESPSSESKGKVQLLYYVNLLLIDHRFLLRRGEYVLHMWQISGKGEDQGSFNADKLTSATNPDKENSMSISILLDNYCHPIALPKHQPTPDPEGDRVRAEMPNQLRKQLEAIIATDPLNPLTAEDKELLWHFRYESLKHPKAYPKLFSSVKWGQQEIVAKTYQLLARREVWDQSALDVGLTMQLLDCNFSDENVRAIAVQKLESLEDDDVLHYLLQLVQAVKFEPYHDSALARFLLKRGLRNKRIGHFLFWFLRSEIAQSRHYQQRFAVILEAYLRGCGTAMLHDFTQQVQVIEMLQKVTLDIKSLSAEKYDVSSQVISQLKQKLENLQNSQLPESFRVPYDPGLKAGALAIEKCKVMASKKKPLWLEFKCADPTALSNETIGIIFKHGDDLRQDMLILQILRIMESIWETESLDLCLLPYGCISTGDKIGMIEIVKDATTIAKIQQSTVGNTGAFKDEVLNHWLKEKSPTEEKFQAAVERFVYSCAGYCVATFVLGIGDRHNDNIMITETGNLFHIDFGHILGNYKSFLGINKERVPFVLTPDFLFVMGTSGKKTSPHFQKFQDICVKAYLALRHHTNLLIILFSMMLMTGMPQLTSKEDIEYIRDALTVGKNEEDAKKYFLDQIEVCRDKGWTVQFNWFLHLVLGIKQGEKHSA

IC50 ([3]; Table A1): < 100 nM
IC50 ([2]; Table A1): < 100 nM
SMILES: Cc1ccc(C(O)(C(N)=O)C(F)F)cc1-c1cnc(N)c(C(=O)NC2CCC(F)(F)CC2)n1 (stereo not drawn) [Example 34, 3-amino-6-(5-(1-amino-3,3-difluoro-2-hydroxy-1-oxopropan-2-yl)-2-methylphenyl)-N-(4,4-difluorocyclohexyl)pyrazine-2-carboxamide]

IC50 ([3]; Table A1): < 100 nM
IC50 ([2]; Table A1): < 100 nM
SMILES: CC[C@@H](CC#N)NC(=O)c1nc(-c2cc(C(O)(C(N)=O)C(F)(F)F)ccc2C)cnc1N (stereo partly drawn) [Example 20, 3-amino-6-(5-(3-amino-1,1,1-trifluoro-2-hydroxy-3-oxopropan-2-yl)-2-methylphenyl)-N-((S)-1-cyanobutan-2-yl)pyrazine-2-carboxamide trifluoroacetate]

IC50 ([3]; Table A1): < 100 nM
IC50 ([2]; Table A1): < 100 nM
SMILES: Cc1ccc(C(O)(C(N)=O)C(F)(F)F)cc1-c1cnc(N)c(C(=O)NCC2(C#N)CCC2)n1 (stereo not drawn) [Example 16, 3-amino-6-(5-(3-amino-1,1,1-trifluoro-2-hydroxy-3-oxopropan-2-yl)-2-methylphenyl)-N-((1-cyanocyclobutyl)methyl)pyrazine-2-carboxamide trifluoroacetate]

IC50 ([3]; Table A1): < 100 nM
IC50 ([2]; Table A1): < 100 nM
SMILES: Cc1ccc(C(O)(C(N)=O)C(F)(F)F)cc1-c1cnc(N)c(C(=O)NCC2(C#N)CC2)n1 (stereo not drawn) [Example 4, 3-amino-6-(5-(3-amino-1,1,1-trifluoro-2-hydroxy-3-oxopropan-2-yl)-2-methylphenyl)-N-((1-cyanocyclopropyl)methyl)pyrazine-2-carboxamide trifluoroacetate]

IC50 ([3]; Table A1): < 100 nM
IC50 ([2]; Table A1): < 100 nM
SMILES: Cc1ccc(C(O)(C(N)=O)C(F)(F)F)cc1-c1cnc(N)c(C(=O)N[C@@H]2CCCOC2)n1 (stereo partly drawn) [Example 9, 3-amino-6-(5-(3-amino-1,1,1-trifluoro-2-hydroxy-3-oxopropan-2-yl)-2-methylphenyl)-N-((R)-tetrahydro-2H-pyran-3-yl)pyrazine-2-carboxamide trifluoroacetate]

IC50 ([3]; Table A1): < 100 nM
IC50 ([2]; Table A1): < 100 nM
SMILES: Cc1ccc(C(O)(C(N)=O)C(F)(F)F)cc1-c1cnc(N)c(C(=O)NC23CC(C#N)(C2)C3)n1 (stereo not drawn) [Example 23, 3-amino-6-(5-(3-amino-1,1,1-trifluoro-2-hydroxy-3-oxopropan-2-yl)-2-methylphenyl)-N-(3-cyanobicyclo[1.1.1]pentan-1-yl)pyrazine-2-carboxamide trifluoroacetate]

IC50 ([3]; Table A1): < 100 nM
IC50 ([2]; Table A1): < 100 nM
SMILES: Cc1ccc(C(O)(C(N)=O)C(F)(F)F)cc1-c1cnc(N)c(C(=O)NC2CCC(F)(F)CC2)n1 (stereo not drawn) [Example 6, 3-amino-6-(5-(3-amino-1,1,1-trifluoro-2-hydroxy-3-oxopropan-2-yl)-2-methylphenyl)-N-(4,4-difluorocyclohexyl)pyrazine-2-carboxamide trifluoroacetate]

More lines, now with the values behind:

SMILES: Cc1ncc(-c2nc(-c3cc(C(O)(C(N)=O)C(F)(F)F)ccc3C)cnc2N)s1 (stereo not drawn) [Example 72, 2-(3-(5-amino-6-(2-methylthiazol-5-yl)pyrazin-2-yl)-4-methylphenyl)-3,3,3-trifluoro-2-hydroxypropanamide trifluoroacetate]
IC50 ([1]; Homo sapiens, Table A3): < 100 nM

SMILES: Cc1ccc(C(O)(C(N)=O)C(F)(F)F)cc1-c1cnc(N)c(C2CN(S(=O)(=O)c3cnn(C)c3)C2)n1 (single isomer, unassigned) [Example 107, 2-(3-(5-Amino-6-(1-((1-methyl-1H-pyrazol-4-yl)sulfonyl)azetidin-3-yl)pyrazin-2-yl)-4-methylphenyl)-3,3,3-trifluoro-2-hydroxypropanamide, trifluoroacetate Salt]
IC50 ([1]; Homo sapiens, Table A4): 500 to 1000 nM

SMILES: CCOC(=O)C1CC(c2nc(-c3cc(C(O)(C(N)=O)C(F)(F)F)ccc3C)cnc2N)C1 (single isomer, unassigned) [Example 109, Ethyl 3-(3-amino-6-(5-(3-amino-1,1,1-trifluoro-2-hydroxy-3-oxopropan-2-yl)-2-methylphenyl)pyrazin-2-yl)cyclobutane-1-carboxylate]
IC50 ([1]; Table A4): > 1000 nM
IC50 ([2]; Table A4): 100 to 500 nM

SMILES: Cc1ccc(C(O)(C(N)=O)C(F)F)cc1-c1cnc(N)c(C(=O)NCC2(C#N)CC2)n1 (stereo not drawn) [Example 33, 3-amino-6-(5-(1-amino-3,3-difluoro-2-hydroxy-1-oxopropan-2-yl)-2-methylphenyl)-N-((1-cyanocyclopropyl)methyl)pyrazine-2-carboxamide]
IC50 ([3]; Table A1): < 100 nM
IC50 ([2]; Table A1): < 100 nM

SMILES: Cc1ccc(C(O)(C(N)=O)C(F)(F)F)cc1-c1cnc(N)c(C#Cc2cnn(C)c2)n1 (stereo not drawn) [Example 54, 2-(3-(5-amino-6-((1-methyl-1H-pyrazol-4-yl)ethynyl)pyrazin-2-yl)-4-methylphenyl)-3,3,3-trifluoro-2-hydroxypropanamide]
IC50 ([3]; Table A2): < 100 nM
IC50 ([2]; Table A2): < 100 nM

SMILES: Cc1ccc(C(O)(C(N)=O)C(F)(F)F)cc1-c1cnc(N)c(N2CCN(c3cccc(C(F)(F)F)c3)CC2)n1 (stereo not drawn) [Example 121, 2-(3-(5-amino-6-(4-(3-(trifluoromethyl)phenyl)piperazin-1-yl)pyrazin-2-yl)-4-methylphenyl)-3,3,3-trifluoro-2-hydroxypropanamide trifluoroacetate]
IC50 ([3]; Table A4): < 100 nM
IC50 ([2]; Table A4): 100 to 500 nM

SMILES: Cc1ccc(C(O)(C(N)=O)C(F)(F)F)cc1-c1cnc(N)c(C#CC(C)(C)O)n1 (stereo not drawn) [Example 50, 2-(3-(5-amino-6-(3-hydroxy-3-methylbut-1-ynyl)pyrazin-2-yl)-4-methylphenyl)-3,3,3-trifluoro-2-hydroxypropanamide]
IC50 ([3]; Table A2): < 100 nM
IC50 ([2]; Table A2): < 100 nM

SMILES: Cc1ccc(C(O)(C(N)=O)C(F)(F)F)cc1-c1cnc(N)c(N2CCN3C(=O)CCC3C2)n1 (stereo not drawn) [Example 126, 2-(3-(5-amino-6-(6-oxohexahydropyrrolo[1,2-a]pyrazin-2(1H)-yl)pyrazin-2-yl)-4-methylphenyl)-3,3,3-trifluoro-2-hydroxypropanamide trifluoroacetate]
IC50 ([3]; Table A4): < 100 nM
IC50 ([2]; Table A4): < 100 nM

SMILES: Cc1ccc(C(O)(C(N)=O)C(F)(F)F)cc1-c1cnc(N)c(-c2ccnn2C)n1 (stereo not drawn) [Example 69, 2-(3-(5-Amino-6-(1-methyl-1H-pyrazol-5-yl)pyrazin-2-yl)-4-methylphenyl)-3,3,3-trifluoro-2-hydroxypropanamide trifluoroacetate]
IC50 ([3]; Table A3): < 100 nM
IC50 ([2]; Table A3): < 100 nM

SMILES: Cc1ccc(C(O)(C(N)=O)C(F)(F)F)cc1-c1cnc(N)c(C#Cc2cnccn2)n1 (stereo not drawn) [Example 57, 2-(3-(5-amino-6-(pyrazin-2-ylethynyl)pyrazin-2-yl)-4-methylphenyl)-3,3,3-trifluoro-2-hydroxypropanamide]
IC50 ([3]; Table A2): < 100 nM
IC50 ([2]; Table A2): < 100 nM

SMILES: Cc1ccc(C(O)(C(N)=O)C(F)(F)F)cc1-c1cnc(N)c(N2CCN(c3cncs3)CC2)n1 (stereo not drawn) [Example 120, 2-(3-(5-amino-6-(4-(thiazol-5-yl)piperazin-1-yl)pyrazin-2-yl)-4-methylphenyl)-3,3,3-trifluoro-2-hydroxypropanamide trifluoroacetate]
IC50 ([3]; Table A4): < 100 nM
IC50 ([2]; Table A4): < 100 nM

SMILES: Cc1ccc(C(O)(C(N)=O)C(F)(F)F)cc1-c1cnc(N)c(C#Cc2cccc(F)c2)n1 (stereo not drawn) [Example 61, 2-(3-(5-amino-6-((3-fluorophenyl)ethynyl)pyrazin-2-yl)-4-methylphenyl)-3,3,3-trifluoro-2-hydroxypropanamide]
IC50 ([3]; Table A2): < 100 nM
IC50 ([2]; Table A2): < 100 nM

SMILES: Cc1ccc([C@@](O)(C(N)=O)C(F)(F)F)cc1-c1cnc(N)c(N2CCN(C(=O)C3CC3)CC2)n1 [Example 115, (R)-2-(3-(5-amino-6-(4-(cyclopropanecarbonyl)piperazin-1-yl)pyrazin-2-yl)-4-methylphenyl)-3,3,3-trifluoro-2-hydroxypropanamide trifluoroacetate]
IC50 ([3]; Table A4): < 100 nM
IC50 ([2]; Table A4): < 100 nM

SMILES: COCC#Cc1nc(-c2cc(C(O)(C(N)=O)C(F)(F)F)ccc2C)cnc1N (stereo not drawn) [Example 47, 2-(3-(5-amino-6-(3-methoxyprop-1-ynyl)pyrazin-2-yl)-4-methylphenyl)-3,3,3-trifluoro-2-hydroxypropanamide trifluoroacetate]
IC50 ([3]; Table A2): < 100 nM
IC50 ([2]; Table A2): < 100 nM

SMILES: Cc1ccc(C(O)(C(N)=O)C(F)(F)F)cc1-c1cnc(N)c(C#Cc2cncnc2)n1 (stereo not drawn) [Example 56, 2-(3-(5-amino-6-(pyrimidin-5-ylethynyl)pyrazin-2-yl)-4-methylphenyl)-3,3,3-trifluoro-2-hydroxypropanamide]
IC50 ([3]; Table A2): < 100 nM
IC50 ([2]; Table A2): < 100 nM
